In ChEMBL document CHEMBL1152560, “Substituted 2-arylbenzothiazoles as kinase inhibitors: hit-to-lead optimization” (Bioorg Med Chem, 2009):

What was measured:
[1] = molecular target: Proto-oncogene tyrosine-protein kinase Src (Homo sapiens) (UniProt P12931); assay: Residual activity of SRC at 0.1 uM by microplate scintillation counting
[2] = molecular target: T1, cGMP-dependent protein kinase 1 (Homo sapiens) (UniProt Q13976); assay: Residual activity of PRKG1 at 10 uM by microplate scintillation counting
T1 sequence (whole entry): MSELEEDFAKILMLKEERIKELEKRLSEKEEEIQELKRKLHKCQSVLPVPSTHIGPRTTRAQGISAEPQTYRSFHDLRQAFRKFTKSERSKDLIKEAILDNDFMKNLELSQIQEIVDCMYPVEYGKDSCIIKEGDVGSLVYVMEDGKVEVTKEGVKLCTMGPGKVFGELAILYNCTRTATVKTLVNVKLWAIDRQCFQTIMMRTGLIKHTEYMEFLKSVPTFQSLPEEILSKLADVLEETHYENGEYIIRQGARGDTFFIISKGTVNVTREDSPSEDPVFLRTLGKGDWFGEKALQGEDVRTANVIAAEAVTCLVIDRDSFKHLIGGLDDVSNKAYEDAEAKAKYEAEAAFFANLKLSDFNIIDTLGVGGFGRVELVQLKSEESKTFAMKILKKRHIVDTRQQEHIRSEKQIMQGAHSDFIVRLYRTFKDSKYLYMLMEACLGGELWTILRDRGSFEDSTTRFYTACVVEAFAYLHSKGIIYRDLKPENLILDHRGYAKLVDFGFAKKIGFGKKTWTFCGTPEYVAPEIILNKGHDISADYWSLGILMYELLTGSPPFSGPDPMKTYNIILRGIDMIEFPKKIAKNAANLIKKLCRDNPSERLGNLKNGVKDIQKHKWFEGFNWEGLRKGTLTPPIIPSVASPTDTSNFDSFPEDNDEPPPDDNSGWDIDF

[3] = molecular target: Cyclin-dependent kinase 16 (Homo sapiens) (UniProt Q00536); assay: Residual activity of PCTAIRE1 at 0.1 uM by microplate scintillation counting
[4] = molecular target: Leukocyte tyrosine kinase receptor (Homo sapiens) (UniProt P29376); assay: Residual activity of LTK at 0.1 uM by microplate scintillation counting
[5] = test system: Serine/threonine-protein kinase B-raf (Homo sapiens), P15056 [V600E]; assay: Residual activity of B-RAF V600E mutant at 10 uM by microplate scintillation counting
[6] = molecular target: Rho-associated protein kinase 2 (Homo sapiens) (UniProt O75116); assay: Residual activity of ROCK2 at 1 uM by microplate scintillation counting
[7] = molecular target: T2, Serine/threonine-protein kinase Nek11 (Homo sapiens) (UniProt Q8NG66); assay: Residual activity of NEK11 at 0.1 uM by microplate scintillation counting
T2 sequence (whole entry): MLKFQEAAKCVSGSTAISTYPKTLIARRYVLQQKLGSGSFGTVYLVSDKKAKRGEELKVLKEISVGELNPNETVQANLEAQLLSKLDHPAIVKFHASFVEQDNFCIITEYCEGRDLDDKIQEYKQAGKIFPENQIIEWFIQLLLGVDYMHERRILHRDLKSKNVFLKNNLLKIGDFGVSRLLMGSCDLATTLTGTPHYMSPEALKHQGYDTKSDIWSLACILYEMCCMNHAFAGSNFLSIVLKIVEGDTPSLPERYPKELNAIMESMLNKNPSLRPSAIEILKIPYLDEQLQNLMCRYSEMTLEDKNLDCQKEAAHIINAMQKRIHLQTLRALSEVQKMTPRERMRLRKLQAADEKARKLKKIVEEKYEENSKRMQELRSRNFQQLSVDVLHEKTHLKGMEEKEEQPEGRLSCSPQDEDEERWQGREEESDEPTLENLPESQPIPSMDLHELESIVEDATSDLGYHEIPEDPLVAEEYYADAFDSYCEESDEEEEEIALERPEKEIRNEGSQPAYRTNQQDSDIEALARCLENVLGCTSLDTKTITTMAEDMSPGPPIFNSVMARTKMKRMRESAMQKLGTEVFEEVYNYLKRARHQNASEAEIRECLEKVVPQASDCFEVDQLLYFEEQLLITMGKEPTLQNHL

[8] = molecular target: Cyclin-dependent kinase 2/cyclin E1 (Homo sapiens) (UniProt P24864+P24941); assay: Residual activity of CDK2/Cyclin E at 1 uM by microplate scintillation counting; assay type: protein-complex assay
[9] = molecular target: T3, Serine/threonine-protein kinase Nek3 (Homo sapiens) (UniProt P51956); assay: Residual activity of NEK3 at 0.1 uM by microplate scintillation counting
T3 sequence (whole entry): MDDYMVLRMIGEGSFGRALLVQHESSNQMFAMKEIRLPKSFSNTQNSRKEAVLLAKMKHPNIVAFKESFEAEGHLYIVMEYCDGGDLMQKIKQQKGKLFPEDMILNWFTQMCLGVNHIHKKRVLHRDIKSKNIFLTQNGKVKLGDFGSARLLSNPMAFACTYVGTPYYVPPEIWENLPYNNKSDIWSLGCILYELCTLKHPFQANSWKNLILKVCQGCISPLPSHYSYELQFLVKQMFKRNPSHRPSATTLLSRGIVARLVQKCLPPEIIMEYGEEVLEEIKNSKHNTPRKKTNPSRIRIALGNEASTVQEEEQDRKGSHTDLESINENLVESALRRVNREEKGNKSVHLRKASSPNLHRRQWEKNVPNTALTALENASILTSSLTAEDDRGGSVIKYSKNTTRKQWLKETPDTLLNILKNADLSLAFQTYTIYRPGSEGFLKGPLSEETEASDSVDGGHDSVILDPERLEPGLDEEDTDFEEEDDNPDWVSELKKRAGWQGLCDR

[10] = molecular target: Homeodomain-interacting protein kinase 3 (Homo sapiens) (UniProt Q9H422); assay: Residual activity of HIPK3 at 10 uM by microplate scintillation counting
[11] = molecular target: Serine/threonine-protein kinase PLK2 (Homo sapiens) (UniProt Q9NYY3); assay: Residual activity of SNK at 10 uM by microplate scintillation counting
Serine/threonine-protein kinase PLK2 (Homo sapiens), sequence (Q9NYY3 whole entry, looked up): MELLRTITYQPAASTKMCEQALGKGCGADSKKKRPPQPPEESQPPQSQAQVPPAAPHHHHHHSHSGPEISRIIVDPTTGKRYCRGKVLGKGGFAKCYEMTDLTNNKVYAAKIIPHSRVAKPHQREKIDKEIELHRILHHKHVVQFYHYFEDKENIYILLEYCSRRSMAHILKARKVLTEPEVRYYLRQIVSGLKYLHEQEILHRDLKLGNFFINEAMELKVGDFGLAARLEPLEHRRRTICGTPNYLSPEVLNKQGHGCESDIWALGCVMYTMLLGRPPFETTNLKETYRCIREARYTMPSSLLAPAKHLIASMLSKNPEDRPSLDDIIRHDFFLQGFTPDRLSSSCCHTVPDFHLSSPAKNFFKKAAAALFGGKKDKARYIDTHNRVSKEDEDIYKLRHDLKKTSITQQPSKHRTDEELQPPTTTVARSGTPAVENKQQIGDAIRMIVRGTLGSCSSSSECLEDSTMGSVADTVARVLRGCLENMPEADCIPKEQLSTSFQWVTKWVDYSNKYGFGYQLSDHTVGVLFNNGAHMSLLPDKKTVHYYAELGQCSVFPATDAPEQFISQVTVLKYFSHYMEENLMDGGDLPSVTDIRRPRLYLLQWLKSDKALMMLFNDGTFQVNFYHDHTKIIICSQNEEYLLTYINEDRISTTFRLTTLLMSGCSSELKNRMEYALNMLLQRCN

Homeodomain-interacting protein kinase 3 (Homo sapiens), sequence (Q9H422 whole entry, looked up): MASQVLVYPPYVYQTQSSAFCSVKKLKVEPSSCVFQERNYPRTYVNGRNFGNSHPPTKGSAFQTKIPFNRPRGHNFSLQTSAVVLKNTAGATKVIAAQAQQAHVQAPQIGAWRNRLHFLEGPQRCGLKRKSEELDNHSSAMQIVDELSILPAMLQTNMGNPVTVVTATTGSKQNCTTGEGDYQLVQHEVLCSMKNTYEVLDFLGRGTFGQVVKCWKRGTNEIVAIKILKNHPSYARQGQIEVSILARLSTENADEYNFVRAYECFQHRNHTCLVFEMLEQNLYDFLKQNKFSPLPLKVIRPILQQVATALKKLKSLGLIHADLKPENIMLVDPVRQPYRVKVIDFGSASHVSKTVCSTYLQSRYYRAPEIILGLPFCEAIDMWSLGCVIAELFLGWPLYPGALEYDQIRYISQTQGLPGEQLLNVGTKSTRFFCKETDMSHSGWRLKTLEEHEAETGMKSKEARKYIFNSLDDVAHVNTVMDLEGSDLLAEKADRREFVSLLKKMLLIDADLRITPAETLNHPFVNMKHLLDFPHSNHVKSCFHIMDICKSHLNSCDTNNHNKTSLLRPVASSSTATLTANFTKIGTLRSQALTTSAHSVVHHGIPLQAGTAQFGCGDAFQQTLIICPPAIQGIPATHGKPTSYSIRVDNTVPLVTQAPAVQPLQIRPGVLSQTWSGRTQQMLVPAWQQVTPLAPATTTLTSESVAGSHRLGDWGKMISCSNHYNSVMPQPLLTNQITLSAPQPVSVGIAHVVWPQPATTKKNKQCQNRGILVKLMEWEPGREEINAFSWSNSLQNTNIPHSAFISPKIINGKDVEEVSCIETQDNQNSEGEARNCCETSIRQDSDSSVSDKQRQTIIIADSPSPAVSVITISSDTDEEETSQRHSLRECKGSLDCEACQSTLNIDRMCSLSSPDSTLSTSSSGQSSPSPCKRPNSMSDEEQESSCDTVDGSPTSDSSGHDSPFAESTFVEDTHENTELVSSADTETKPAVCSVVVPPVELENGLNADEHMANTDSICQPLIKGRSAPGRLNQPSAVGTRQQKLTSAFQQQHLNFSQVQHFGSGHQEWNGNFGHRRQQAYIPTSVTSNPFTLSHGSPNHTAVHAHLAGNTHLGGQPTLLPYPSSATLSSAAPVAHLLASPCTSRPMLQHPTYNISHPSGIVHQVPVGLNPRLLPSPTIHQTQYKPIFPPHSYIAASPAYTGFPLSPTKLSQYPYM
Cyclin-dependent kinase 16 (Homo sapiens), sequence (Q00536 whole entry): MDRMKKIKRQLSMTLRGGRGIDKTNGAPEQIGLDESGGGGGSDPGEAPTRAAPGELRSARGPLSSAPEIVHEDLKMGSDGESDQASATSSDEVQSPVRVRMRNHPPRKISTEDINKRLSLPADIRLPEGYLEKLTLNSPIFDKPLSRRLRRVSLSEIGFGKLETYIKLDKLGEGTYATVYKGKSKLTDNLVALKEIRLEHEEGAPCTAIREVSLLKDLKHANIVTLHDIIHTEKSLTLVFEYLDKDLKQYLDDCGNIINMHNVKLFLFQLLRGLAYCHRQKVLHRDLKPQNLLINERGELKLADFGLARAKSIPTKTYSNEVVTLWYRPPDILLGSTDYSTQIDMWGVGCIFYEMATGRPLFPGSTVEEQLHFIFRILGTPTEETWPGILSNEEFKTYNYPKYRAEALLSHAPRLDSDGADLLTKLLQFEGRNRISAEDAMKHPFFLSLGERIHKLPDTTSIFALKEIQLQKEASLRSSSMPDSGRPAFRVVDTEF
Proto-oncogene tyrosine-protein kinase Src (Homo sapiens), sequence (P12931 2-536 limits assumed): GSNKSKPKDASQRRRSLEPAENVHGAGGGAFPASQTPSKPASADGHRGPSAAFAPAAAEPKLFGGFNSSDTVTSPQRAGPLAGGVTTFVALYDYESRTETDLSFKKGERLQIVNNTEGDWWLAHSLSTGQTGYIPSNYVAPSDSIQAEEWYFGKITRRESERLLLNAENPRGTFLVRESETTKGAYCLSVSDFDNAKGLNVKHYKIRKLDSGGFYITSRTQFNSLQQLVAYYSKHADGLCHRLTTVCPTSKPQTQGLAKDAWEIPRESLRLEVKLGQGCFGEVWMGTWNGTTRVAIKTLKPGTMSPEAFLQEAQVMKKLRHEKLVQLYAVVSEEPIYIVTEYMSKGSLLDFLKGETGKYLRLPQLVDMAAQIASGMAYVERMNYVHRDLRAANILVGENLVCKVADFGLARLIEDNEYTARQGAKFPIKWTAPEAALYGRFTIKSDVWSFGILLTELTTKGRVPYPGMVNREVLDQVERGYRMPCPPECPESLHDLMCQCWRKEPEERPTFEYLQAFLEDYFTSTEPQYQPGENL
Rho-associated protein kinase 2 (Homo sapiens), sequence (O75116 whole entry, looked up): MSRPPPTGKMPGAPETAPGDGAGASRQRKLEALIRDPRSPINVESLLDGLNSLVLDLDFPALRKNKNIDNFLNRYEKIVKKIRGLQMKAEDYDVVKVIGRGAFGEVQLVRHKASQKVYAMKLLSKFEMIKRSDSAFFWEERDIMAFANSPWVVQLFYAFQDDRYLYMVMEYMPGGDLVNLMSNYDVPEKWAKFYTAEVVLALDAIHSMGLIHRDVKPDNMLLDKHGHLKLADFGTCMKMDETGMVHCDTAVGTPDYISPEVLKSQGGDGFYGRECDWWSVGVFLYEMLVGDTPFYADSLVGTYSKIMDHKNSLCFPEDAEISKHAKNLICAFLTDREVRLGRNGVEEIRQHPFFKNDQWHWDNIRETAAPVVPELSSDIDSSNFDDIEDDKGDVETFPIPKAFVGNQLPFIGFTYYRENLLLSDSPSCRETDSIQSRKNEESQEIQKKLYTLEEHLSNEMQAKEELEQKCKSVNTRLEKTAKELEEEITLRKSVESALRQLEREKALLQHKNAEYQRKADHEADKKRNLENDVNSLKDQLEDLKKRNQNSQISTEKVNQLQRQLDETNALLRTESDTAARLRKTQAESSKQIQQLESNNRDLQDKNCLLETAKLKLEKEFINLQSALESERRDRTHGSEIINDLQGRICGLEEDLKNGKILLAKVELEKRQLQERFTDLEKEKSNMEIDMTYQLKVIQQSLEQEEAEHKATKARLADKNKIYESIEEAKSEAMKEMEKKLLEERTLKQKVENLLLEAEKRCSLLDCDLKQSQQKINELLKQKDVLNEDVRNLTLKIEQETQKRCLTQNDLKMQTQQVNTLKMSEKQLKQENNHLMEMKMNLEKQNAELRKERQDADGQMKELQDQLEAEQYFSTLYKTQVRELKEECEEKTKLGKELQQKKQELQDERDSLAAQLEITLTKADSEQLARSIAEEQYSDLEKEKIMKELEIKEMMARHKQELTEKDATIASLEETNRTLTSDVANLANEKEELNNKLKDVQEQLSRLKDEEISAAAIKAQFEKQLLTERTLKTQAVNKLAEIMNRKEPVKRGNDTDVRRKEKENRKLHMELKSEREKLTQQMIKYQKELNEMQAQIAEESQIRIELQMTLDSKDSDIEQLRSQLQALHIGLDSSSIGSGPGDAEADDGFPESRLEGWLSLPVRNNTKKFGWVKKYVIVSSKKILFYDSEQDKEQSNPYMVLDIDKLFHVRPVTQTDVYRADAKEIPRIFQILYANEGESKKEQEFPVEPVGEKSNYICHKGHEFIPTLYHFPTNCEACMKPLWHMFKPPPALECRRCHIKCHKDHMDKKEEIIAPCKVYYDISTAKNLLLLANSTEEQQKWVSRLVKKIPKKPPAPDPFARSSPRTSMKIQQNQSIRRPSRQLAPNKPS
Serine/threonine-protein kinase B-raf (Homo sapiens), P15056 [V600E], sequence (P15056 whole entry V600E): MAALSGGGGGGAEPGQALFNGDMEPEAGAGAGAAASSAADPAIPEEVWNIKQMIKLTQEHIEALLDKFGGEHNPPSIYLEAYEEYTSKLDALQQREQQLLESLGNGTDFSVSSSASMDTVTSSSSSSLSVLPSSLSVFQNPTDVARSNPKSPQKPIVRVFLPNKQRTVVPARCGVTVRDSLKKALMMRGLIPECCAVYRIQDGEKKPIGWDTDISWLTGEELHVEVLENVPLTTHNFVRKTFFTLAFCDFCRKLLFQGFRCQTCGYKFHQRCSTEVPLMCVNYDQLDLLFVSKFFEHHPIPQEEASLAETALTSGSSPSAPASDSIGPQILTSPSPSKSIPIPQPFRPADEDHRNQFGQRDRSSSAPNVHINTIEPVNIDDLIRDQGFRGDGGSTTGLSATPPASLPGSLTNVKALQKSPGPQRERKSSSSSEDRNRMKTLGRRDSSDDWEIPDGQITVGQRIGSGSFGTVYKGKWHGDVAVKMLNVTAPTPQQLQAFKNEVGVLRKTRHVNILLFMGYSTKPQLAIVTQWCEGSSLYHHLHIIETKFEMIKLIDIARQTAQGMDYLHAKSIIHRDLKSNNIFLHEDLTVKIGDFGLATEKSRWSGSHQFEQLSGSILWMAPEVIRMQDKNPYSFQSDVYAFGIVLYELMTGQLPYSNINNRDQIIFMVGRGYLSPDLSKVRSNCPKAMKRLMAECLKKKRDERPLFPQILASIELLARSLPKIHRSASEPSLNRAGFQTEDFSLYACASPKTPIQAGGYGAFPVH

Row | residual activity [1] [%] | residual activity [2] [%] | residual activity [3] [%] | residual activity [4] [%] | residual activity [5] [%] | residual activity [6] [%] | residual activity [7] [%] | residual activity [8] [%] | residual activity [9] [%] | residual activity [10] [%] | residual activity [11] [%] | Structure (SMILES)
1 | 100 | 57 | 83 | 99 | 58 | 93 | 103 | 94 | 96 | 147 | 120 | COc1cc2c(Oc3ccc(-c4nc5ccccc5s4)cc3)ncnc2cc1OCCCN1CCCC1
2 | 100 | 50 | 78 | 82 | 57 | 101 | 95 | 102 | 98 | 132 | 108 | COc1cc2c(Oc3ccc(-c4nc5ccccc5s4)cc3)ncnc2cc1OCCCN1CCN(C)CC1
3 | 100 | 38 | 76 | 101 | 81 | 93 | 94 | 94 | 93 | 142 | 99 | COc1cc2c(Oc3ccc(-c4nc5ccccc5s4)cc3F)ncnc2cc1OCCCN1CCN(C)CC1
